{"source": "paper PMC8720282", "about": "(ACS chemical biology, 2021)", "tested_on": "defibrinated rabbit red blood cells", "experiment": "Hemolysis assay", "format": "cell-based", "conditions": "defibrinated rabbit RBCs, triplicate on three separate days"}
{"smiles": "CC(C)(C)CC(C)(C)c1ccc(OCCO)cc1", "note": "[Triton X]", "values": [{"measurement": "hemolysis in THY media alone", "result": "significant degree of hemolysis"}]}
